The record followed here is US20110124626A1, “BENZAZEPINE DERIVATIVES AND THEIR USE AS HISTAMINE H3 ANTAGONISTS” (TAKEDA PHARMACEUTICAL COMPANY LIMITED, priority 2008, published 2011).

T1 sequence (Q9Y5N1 whole entry): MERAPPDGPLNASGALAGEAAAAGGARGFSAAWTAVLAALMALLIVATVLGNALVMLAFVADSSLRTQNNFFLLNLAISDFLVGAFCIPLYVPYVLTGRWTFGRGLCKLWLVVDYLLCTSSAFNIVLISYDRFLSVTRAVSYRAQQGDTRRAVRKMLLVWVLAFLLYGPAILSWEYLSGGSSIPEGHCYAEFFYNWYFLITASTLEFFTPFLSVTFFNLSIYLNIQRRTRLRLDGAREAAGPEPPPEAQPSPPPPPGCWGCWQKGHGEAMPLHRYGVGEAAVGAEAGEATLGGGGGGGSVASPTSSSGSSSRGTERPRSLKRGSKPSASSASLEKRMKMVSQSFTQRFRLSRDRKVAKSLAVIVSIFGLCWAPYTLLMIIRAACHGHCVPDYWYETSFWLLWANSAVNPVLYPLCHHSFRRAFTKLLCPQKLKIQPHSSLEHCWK

The assay has as its target T1, human H3 receptor (Homo sapiens, UniProt Q9Y5N1).
T1 construct: expressed in transfected cells
As to the kind of experiment: In vitro H3 binding assay (3H-N-α-methyl-histamine competition binding). Conditions: membranes of CHO-K1 cells expressing human H3 receptor; 2 nM 3H-NαMH; read-out: hH3 binding IC50. The method, then:
The ability of compounds to bind to the H3 receptor was determined by measuring the reduction in tritiated N-α-methyl-histamine (^3H—NαMH) binding in a competition binding assay. Changes in the levels of bound radio-label were monitored by scintillation counting with a Trilux Microbeta (Perkin Elmer).
Membranes were prepared from CHO-K1 cells stably expressing human H3 receptor; routinely grown as monolayers in Ham's F12 medium (Invitrogen) supplemented with 10% Foetal Clone 111 (Hyclone), 500 μg/ml G418 (Invitrogen), 5 μg/ml blasticidine S (Invivogen) and […] Gentamicin (Sigma) in 5% CO2 at 37° C. Cells were grown to 80-95% confluency, rinsed once with 1×PBS (Invitrogen) and detached by incubating with 1×PBS containing 0.02% EDTA (Sigma) for 10 minutes at room temperature. Cells were collected by centrifugation at 900×g, 4° C. for 10 minutes. Cells were rinsed once with 1×PBS and re-suspended in ice cold homogenisation buffer (50 mM Tris-HCl (pH 7.4), 2.5 mM EDTA, 5 mM MgCl2, 200 mM Sucrose) at 1×10^7 cells/ml and kept on ice. Cells were homogenised on ice and debris removed by centrifugation at 500×g, 4° C. for 5 minutes. The resulting supernatant was centrifuged at 75,600×g, 4° C. for 60 minutes. Membranes were suspended in homogenisation buffer, protein concentration was determined (BCA Protein Assay kit (Pierce)), diluted to 2.2 mg/ml, dispensed into 1 ml aliquots and stored at −80° C.
Membranes were thawed on ice, sonicated with 4 cycles of 20 pulses (50% amplitude, 0.5 pulse) (UP200S Hielscher) on ice, diluted in assay buffer (50 mM Tris-HCl (pH7.4), 5 mM MgCl2) to 62.5 μg/ml. Compound was serially diluted in DMSO before being diluted 1:10 with assay buffer. 5 μg of membrane in 80 μl of assay buffer was added per well of a 96 well polystyrene plate (Corning). […] of compound was added per well. The assay was initiated by the addition of 10 μl of 20 nM ^3H—NαMH per well and incubated for one hour at room temperature with shaking. Total binding was determined in the presence of 1% DMSO and non-specific binding was determined by the inclusion of 1 μM R-α-methyl-histamine (RαMH). Incubations were then filtered through filtermat A (Perkin Elmer) and washed three times with assay buffer. Filtermats were dried at 42° C. for two hours, scintillant added and the level of bound radioactivity determined.
IC50 values for compounds were determined from seven point log scale dose-response studies and represent the concentration of compound required to inhibit 50% of the specific binding of 2 nM ^3H—NαMH (difference between total and non-specific binding). Curves were generated using the average of duplicate wells for each data point and analyzed using nonlinear regression of sigmoidal dose response (variable slope).
Broadly, the IC50 is the concentration that inhibits the measured activity by half. Turning to `O=C(NCC1CCN(C2CCC2)CC1)c1ccc2c(c1)CCN(C1CCC1)CC2` [Example 11, 3-Cyclobutyl-N-((1-cyclobutylpiperidin-4-yl)methyl)-2,3,4,5-tetrahydro-1H-benzo[d]azepine-7-carboxamide], the half-inhibitory concentration (IC50) came out at 30 nM.

Consider `O=C(NCc1ccccc1)c1ccc2c(c1)CCN(C1CCCC1)CC2` [Example 19, N-Benzyl-3-cyclopentyl-2,3,4,5-tetrahydro-1H-benzo[d]azepine-7-carboxamide], for which the IC50 worked out at 20 nM.

`O=C(NCc1ccncc1)c1ccc2c(c1)CCN(C1CCCC1)CC2` [Example 21, 3-Cyclopentyl-N-(pyridin-4-ylmethyl)-2,3,4,5-tetrahydro-1H-benzo[d]azepine-7-carboxamide]: the 50% inhibitory concentration (IC50) amounted to 13 nM.

In the case of `CCNC(=O)c1ccc2c(c1)CCN(C1CCC1)CC2` [Example 25, 3-Cyclobutyl-N-ethyl-2,3,4,5-tetrahydro-1H-benzo[d]azepine-7-carboxamide], the IC50 was 37 nM.

Take `CC(C)NC(=O)c1ccc2c(c1)CCN(C1CCC1)CC2` [Example 26, 3-Cyclobutyl-N-isopropyl-2,3,4,5-tetrahydro-1H-benzo[d]azepine-7-carboxamide]: the IC50 worked out at 36 nM.

As to `O=C(NC1CCC1)c1ccc2c(c1)CCN(C1CCC1)CC2` [Example 27, N,3-Dicyclobutyl-2,3,4,5-tetrahydro-1H-benzo[d]azepine-7-carboxamide], the IC50 was found to be 21 nM.

As to `O=C(NCC1CCCC1)c1ccc2c(c1)CCN(C1CCC1)CC2` [Example 30, 3-Cyclobutyl-N-(cyclopentylmethyl)-2,3,4,5-tetrahydro-1H-benzo[d]azepine-7-carboxamide], the 50% inhibitory concentration (IC50) was 5 nM.

Consider `O=C(NCCc1ccccc1)c1ccc2c(c1)CCN(C1CCC1)CC2` [Example 38, 3-Cyclobutyl-N-phenethyl-2,3,4,5-tetrahydro-1H-benzo[d]azepine-7-carboxamide], for which the IC50 is 9 nM.

`O=C(NCc1ccccn1)c1ccc2c(c1)CCN(C1CCC1)CC2` [Example 45, 3-Cyclobutyl-N-(pyridin-2-ylmethyl)-2,3,4,5-tetrahydro-1H-benzo[d]azepine-7-carboxamide]: the IC50 was determined as 13 nM.

In the case of `COc1ccc(CNC(=O)c2ccc3c(c2)CCN(C2CCC2)CC3)cc1` [Example 49, 3-Cyclobutyl-N-(4-methoxybenzyl)-2,3,4,5-tetrahydro-1H-benzo[d]azepine-7-carboxamide], the IC50 was 34 nM.

For the compound `COC(=O)c1ccc(CNC(=O)c2ccc3c(c2)CCN(C2CCC2)CC3)cc1` [Example 50, Methyl 4-((3-cyclobutyl-2,3,4,5-tetrahydro-1H-benzo[d]azepine-7-carboxamido)methyl)benzoate], the IC50 was 24 nM.

`O=C(NCc1ccccc1Br)c1ccc2c(c1)CCN(C1CCC1)CC2` [Example 54, N-(2-Bromobenzyl)-3-cyclobutyl-2,3,4,5-tetrahydro-1H-benzo[d]azepine-7-carboxamide]: the IC50 was determined as 10 nM.

On to `O=C(NCc1ccccc1C(F)(F)F)c1ccc2c(c1)CCN(C1CCC1)CC2` [Example 57, 3-Cyclobutyl-N-(2-(trifluoromethyl)benzyl)-2,3,4,5-tetrahydro-1H-benzo[d]azepine-7-carboxamide], for which the IC50 came out at 12 nM.

For the compound `O=C(NCc1ccccc1Cl)c1ccc2c(c1)CCN(C1CCC1)CC2` [Example 63, N-(2-Chlorobenzyl)-3-cyclobutyl-2,3,4,5-tetrahydro-1H-benzo[d]azepine-7-carboxamide], the IC50 came to 6 nM.

Take `O=C(NCc1cccc(Cl)c1)c1ccc2c(c1)CCN(C1CCC1)CC2` [Example 65, N-(3-Chlorobenzyl)-3-cyclobutyl-2,3,4,5-tetrahydro-1H-benzo[d]azepine-7-carboxamide]: the IC50 worked out at 4 nM.

With `O=C(NCc1ccc(Cl)cc1)c1ccc2c(c1)CCN(C1CCC1)CC2` [Example 67, N-(4-Chlorobenzyl)-3-cyclobutyl-2,3,4,5-tetrahydro-1H-benzo[d]azepine-7-carboxamide], the 50% inhibitory concentration (IC50) amounted to 11 nM.

Turning to `Cn1ccc2cc(CNC(=O)c3ccc4c(c3)CCN(C3CCC3)CC4)ccc21` [Example 75, 3-Cyclobutyl-N-((1-methyl-1H-indol-5-yl)methyl)-2,3,4,5-tetrahydro-1H-benzo[d]azepine-7-carboxamide], the IC50 turned out to be 15 nM.

Turning to `O=C(NCc1cc(-c2cccs2)on1)c1ccc2c(c1)CCN(C1CCC1)CC2` [Example 84, 3-Cyclobutyl-N-((5-(thiophen-2-yl)isoxazol-3-yl)methyl)-2,3,4,5-tetrahydro-1H-benzo[d]azepine-7-carboxamide], the 50% inhibitory concentration (IC50) came out at 10 nM.

Take `Cc1oc(-c2ccccc2)nc1CNC(=O)c1ccc2c(c1)CCN(C1CCC1)CC2` [Example 85, 3-Cyclobutyl-N-((5-methyl-2-phenyloxazol-4-yl)methyl)-2,3,4,5-tetrahydro-1H-benzo[d]azepine-7-carboxamide]: the IC50 turned out to be 14 nM.

Consider `O=C(NCc1cccs1)c1ccc2c(c1)CCN(C1CCC1)CC2` [Example 87, 3-Cyclobutyl-N-(thiophen-2-ylmethyl)-2,3,4,5-tetrahydro-1H-benzo[d]azepine-7-carboxamide], for which the half-maximal inhibitory concentration (IC50) amounted to 4 nM.

For the compound `O=C(NCc1ccoc1)c1ccc2c(c1)CCN(C1CCC1)CC2` [Example 89, 3-Cyclobutyl-N-(furan-3-ylmethyl)-2,3,4,5-tetrahydro-1H-benzo[d]azepine-7-carboxamide], the IC50 was found to be 18 nM.

`Cc1occc1CNC(=O)c1ccc2c(c1)CCN(C1CCC1)CC2` [Example 90, 3-cyclobutyl-N-((2-methylfuran-3-yl)methyl)-2,3,4,5-tetrahydro-1H-benzo[d]azepine-7-carboxamide]: the IC50 was found to be 10 nM.

For `Cc1cc(CNC(=O)c2ccc3c(c2)CCN(C2CCC2)CC3)c(C)o1` [Example 91, 3-cyclobutyl-N-((2,5-dimethylfuran-3-yl)methyl)-2,3,4,5-tetrahydro-1H-benzo[d]azepine-7-carboxamide], the half-maximal inhibitory concentration (IC50) came out at 6 nM.

`Cc1nc(CNC(=O)c2ccc3c(c2)CCN(C2CCC2)CC3)c(C)o1` [Example 93, 3-cyclobutyl-N-((2,5-dimethyloxazol-4-yl)methyl)-2,3,4,5-tetrahydro-1H-benzo[d]azepine-7-carboxamide]: the 50% inhibitory concentration (IC50) was determined as 29 nM.

In the case of `CCn1cc(CNC(=O)c2ccc3c(c2)CCN(C2CCC2)CC3)cn1` [Example 95, 3-Cyclobutyl-N-((1-ethyl-1H-pyrazol-4-yl)methyl)-2,3,4,5-tetrahydro-1H-benzo[d]azepine-7-carboxamide], the half-inhibitory concentration (IC50) turned out to be 18 nM.

Consider `Cc1nn(C)c(C)c1CNC(=O)c1ccc2c(c1)CCN(C1CCC1)CC2` [Example 96, 3-Cyclobutyl-N-((1,3,5-trimethyl-1H-pyrazol-4-yl)methyl)-2,3,4,5-tetrahydro-1H-benzo[d]azepine-7-carboxamide], for which the IC50 came to 18 nM.

On to `Cc1nn(C)cc1CNC(=O)c1ccc2c(c1)CCN(C1CCC1)CC2` [Example 98, 3-Cyclobutyl-N-((1,3-dimethyl-1H-pyrazol-4-yl)methyl)-2,3,4,5-tetrahydro-1H-benzo[d]azepine-7-carboxamide], for which the IC50 was determined as 15 nM.

For the compound `CCn1cc(CNC(=O)c2ccc3c(c2)CCN(C2CCC2)CC3)c(C)n1` [Example 99, 3-Cyclobutyl-N-((1-ethyl-3-methyl-1H-pyrazol-4-yl)methyl)-2,3,4,5-tetrahydro-1H-benzo[d]azepine-7-carboxamide], the IC50 turned out to be 18 nM.

Consider `Cn1ncc(Cl)c1CNC(=O)c1ccc2c(c1)CCN(C1CCC1)CC2` [Example 102, N-((4-chloro-1-methyl-1H-pyrazol-5-yl)methyl)-3-cyclobutyl-2,3,4,5-tetrahydro-1H-benzo[d]azepine-7-carboxamide], for which the IC50 was found to be 18 nM.

As to `CCn1cc(Cl)c(CNC(=O)c2ccc3c(c2)CCN(C2CCC2)CC3)n1` [Example 106, N-((4-chloro-1-ethyl-1H-pyrazol-3-yl)methyl)-3-cyclobutyl-2,3,4,5-tetrahydro-1H-benzo[d]azepine-7-carboxamide], the 50% inhibitory concentration (IC50) stood at 13 nM.

For the compound `Cn1nc(-c2cccs2)cc1CNC(=O)c1ccc2c(c1)CCN(C1CCC1)CC2` [Example 109, 3-Cyclobutyl-N-((1-methyl-3-(thiophen-2-yl)-1H-pyrazol-5-yl)methyl)-2,3,4,5-tetrahydro-1H-benzo[d]azepine-7-carboxamide], the 50% inhibitory concentration (IC50) came to 2 nM.
